Measured values from patent US20230250095A1, “BENZIMIDAZOLE DERIVATIVES, PREPARATION METHOD THEREFOR AND MEDICAL USE THEREOF” (TUOJIE BIOTECH(SHANGHAI) CO., LTD., priority 2020, published 2023).

What was measured:
Type in all cases: in vitro ADME
[1] = molecular target: T1, CYP1A2 (Homo sapiens, UniProt P05177); assay: CYP inhibition assay in pooled human liver microsomes (phenacetin); details: human liver microsomes 0.2 mg/mL, substrate phenacetin; read-out: CYP 1A2 (μM) IC50
T1 construct: 150-donor pooled human liver microsomes (purchased from Corning, Cat. No. 452117); tissue Corning 452117; host or cells: 150-donor pooled human liver microsomes
T1 sequence (P05177 1-516): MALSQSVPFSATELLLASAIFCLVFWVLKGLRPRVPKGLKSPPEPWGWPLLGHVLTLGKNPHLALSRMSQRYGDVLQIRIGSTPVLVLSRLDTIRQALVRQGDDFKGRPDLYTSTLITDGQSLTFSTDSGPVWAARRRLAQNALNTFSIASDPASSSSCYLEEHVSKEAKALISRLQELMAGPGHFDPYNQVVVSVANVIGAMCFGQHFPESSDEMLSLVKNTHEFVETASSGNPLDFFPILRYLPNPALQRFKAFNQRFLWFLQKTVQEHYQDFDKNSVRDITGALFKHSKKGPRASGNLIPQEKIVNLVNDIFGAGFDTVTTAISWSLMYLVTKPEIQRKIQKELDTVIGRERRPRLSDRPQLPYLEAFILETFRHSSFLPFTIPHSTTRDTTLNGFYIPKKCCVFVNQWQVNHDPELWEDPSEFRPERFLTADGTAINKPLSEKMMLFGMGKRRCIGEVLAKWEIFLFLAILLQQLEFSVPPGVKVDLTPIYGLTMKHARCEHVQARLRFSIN
Protocol: (§1) The metabolic reactions of representative substrates of 5 major human CYP subtypes (CYP1A2, CYP2C9, CYP2C19, CYP2D6, CYP3A4/5) were evaluated using 150-donor pooled human liver microsomes (purchased from Corning, Cat. No. 452117). The effects of different concentrations of the test compounds on the metabolic reactions of phenacetin (CYP1A2), diclofenac sodium (CYP2C9), S-mephenytoin (CYP2C19), bufuralol hydrochloride (CYP2D6) and midazolam (CYP3A4/5) were determined by liquid chromatography-tandem mass spectrometry (LC/MS/MS).
(§2) 30 μM phenacetin, 10 μM diclofenac sodium, 35 μM S-mephenytoin, 5 μM bufuralol hydrochloride, 3 μM midazolam, 1 mM NADPH, and test compounds (at concentrations of 0.1 μmol/L, 0.3 μmol/L, 1 μmol/L, 3 μmol/L, 10 μmol/L, and 30 μmol/L, respectively) or positive compound or blank were incubated with 200 μL of a reaction system of pooled human liver microsomes (0.2 mg/mL) (100 mmol/L phosphate buffer, pH 7.4, containing 0.3% by volume of DMSO, 0.6% by volume of acetonitrile, and 0.1% by volume of methanol) at 37° C. for 5 min. Then, 200 μL of acetonitrile containing 3% formic acid and 40 nM internal standard verapamil was added, and the mixture was centrifuged at 4000 rpm for 50 min. The mixture was cooled on ice for 20 min and centrifuged at 4000 rpm for 20 min to precipitate the protein. 200 μL of the supernatant was analyzed by LC/MS/MS.
(§3) The peak area was calculated from the chromatogram. The residual activity rate (%) was calculated by the following formula:
(§4) peak area rate=peak area of metabolite/peak area of internal standard
(§5) residual activity rate (%)=peak area proportion of the test compound group/peak area proportion of the blank group
(§6) The half maximal inhibitory concentrations (IC50) against CYP were calculated by Excel XLfit 5.3.1.3.

[2] = system: CYP3A4/5; assay: CYP inhibition assay in pooled human liver microsomes (midazolam); details: pH 7.4, probe midazolam (3 μM), human liver microsomes 0.2 mg/mL, substrate midazolam, read-out: CYP 3A4/5 (μM) IC50
Protocol: as §1, §2, §3, §4, §5, §6

[3] = Caco-2 permeability assay; details: human
Protocol: The apparent permeability coefficient (Papp) of the analytical drug was determined by liquid chromatography-tandem mass spectrometry (LC/MS/MS) through a Caco-2 cell model.
The transfer rate of drug from the apical end to the basal end was determined. 108 μL of HBSS (25 mM HEPES, pH 7.4) containing 10 μM test compound was added to the apical end of the upper chamber of Transwell (purchased from Corning) containing Caco-2 cells (purchased from ATCC) at a density of 6.86×10^5 cells/cm^2, and meanwhile, 8 μL of the sample was added, as an initial dosing-end sample (A-B), to a new 96-well plate to which 72 μL of HBSS (25 mM HEPES, pH 7.4) and 240 μL of acetonitrile (containing 100 nM alprazolam, 200 nM caffeine and 100 nM tolbutamide) had been added, and the plate was vortexed at 1000 rpm for 10 min. 300 μL of HBSS (25 mM HEPES, pH 7.4) was added to the basal end.
The transfer rate of drug from the basal end to the apical end was determined. 308 μL of HBSS (25 mM HEPES, pH 7.4) containing 10 μM test compound was added to wells of the basal end of the plate, and meanwhile, 8 μL of the sample was added, as an initial dosing-end sample (B-A), to a new 96-well plate to which 72 μL of HBSS (25 mM HEPES, pH 7.4) and 240 μL of acetonitrile (containing 100 nM alprazolam, 200 nM caffeine and 100 nM tolbutamide) had been added. The plate was vortexed at 1000 rpm for 10 min, and 100 μL of HBSS (25 mM HEPES, pH 7.4) was added to the apical end.
The transfer rate from the apical end to the basal end and the transfer rate from the basal end to the apical end need to be determined simultaneously.
At the end of the transfer cycle, 8 μL of the sample was taken from the dosing end (apical end of A-B flow and basal end of B-A flow) and added to 72 μL of HBSS (25 mM HEPES, pH 7.4) and 240 μL of acetonitrile (containing 100 nM alprazolam, 200 nM caffeine and 100 nM tolbutamide), and the mixture was added to a new 96-well plate. 80 μL of the liquid was taken directly from each of the basal end of the A-B flow and the apical end of the B-A flow, and added together with 240 μL of acetonitrile (containing 100 nM alprazolam, 200 nM caffeine and 100 nM tolbutamide) to a new 96-well plate. The plates were vortexed at 1000 rpm for 10 min. The samples were centrifuged at 4000 rpm for 30 min. 100 μL of the supernatant was transferred to a new 96-well plate. All samples were analyzed by LC-MS/MS with 100 μL of pure water.
Data were calculated using Microsoft Excel and peak areas were calculated from the chromatograms. The apparent permeability coefficient (Papp) is in cm/s and is calculated using the following formula: […]
Papp is apparent permeability (cm/s×10^−6);
The outflow ratio can be determined by the following equation: […]

IC50 [1] [µM] | IC50 at 5 min [2] [µM] | Papp A→B at 10 μM ([3]; Caco-2, 10 μM test compound, apical to basal, pH 7.4) [×10⁻⁶ cm/s] | efflux ratio at 10 μM ([3]; Caco-2, Papp (B-A)/Papp (A-B), read-out: Outflow ratio) | Compound
> 30 | > 30 |  |  | CC(=O)N1CCOC(Cn2c(-c3c(F)cc(N4CCCC4=O)cc3F)nc3cc(C)ccc32)C1 (stereo in doubt) [Compound 1]
> 30 | > 30 |  |  | COC(=O)N1CCOC(Cn2c(-c3c(F)cc(N4CCCC4=O)cc3F)nc3cc(C)ccc32)C1 (stereo not shown) [Compound 2, Methyl 2-((2-(2,6-difluoro-4-(2-carbonylpyrrolidin-1-yl)phenyl)-5-methyl-1H-benzo[d]imidazol-1-yl)methyl)morpholine-4-carboxylate]
> 30 | > 30 |  |  | CC(=O)N1CCO[C@@H](Cn2c(-c3ccc(N4CCCC4=O)cc3Cl)nc3cc(C)ccc32)C1 [Compound 3, (S)-1-(4-(1-((4-acetylmorpholin-2-yl)methyl)-5-methyl-1H-benzo[d]imidazol-2-yl)-3-chlorophenyl)pyrrolidin-2-one]
> 30 | > 30 | 8.1 | 3.8 | CC(=O)N1CCO[C@@H](Cn2c(-c3c(F)cc(N4CCCC4=O)cc3Cl)nc3cc(C)ccc32)C1 [Compound 4, (S)-1-(4-(1-((4-acetylmorpholin-2-yl)methyl)-5-methyl-1H-benzo[d]imidazol-2-yl)-3-chloro-5-fluorophenyl)pyrrolidin-2-one]
> 30 | > 30 |  |  | CC(=O)N1CCO[C@@H](Cn2c(-c3c(F)cc(N4CCCC4=O)cc3F)nc3cc(Cl)ccc32)C1 [Compound 10, (S)-1-(4-(1-((4-acetylmorpholin-2-yl)methyl)-5-chloro-1H-benzo[d]imidazol-2-yl)-3,5-difluorophenyl)pyrrolidin-2-one]
> 30 | > 30 |  |  | [2H]C([2H])([2H])c1ccc2c(c1)nc(-c1c(F)cc(N3CCCC3=O)cc1F)n2C[C@H]1CN(C(C)=O)CCO1 [Compound 14, (S)-1-(4-(1-((4-acetylmorpholin-2-yl)methyl)-5-(methyl-d3)-1H-benzo[d]imidazol-2-yl)-3,5-difluorophenyl)pyrrolidin-2-one]

Compound | IC50 [1] [µM] | IC50 at 5 min [2] [µM] | Papp A→B at 10 μM ([3]; Caco-2, 10 μM test compound, apical to basal, pH 7.4) [×10⁻⁶ cm/s] | efflux ratio at 10 μM ([3]; Caco-2, Papp (B-A)/Papp (A-B), read-out: Outflow ratio)
COC(=O)N1CCO[C@@H](Cc2c(-c3c(F)cc(N4CCCC4=O)cc3F)nc3cc(C)ccn23)C1 [Compound 9, Methyl (S)-2-((2-(2,6-difluoro-4-(2-carbonylpyrrolidin-1-yl)phenyl)-7-methylimidazo[1,2-a]pyridin-3-yl)methyl)morpholine-4-carboxylate] | > 30 | 12.9 |  | 
